One data set deals with VERO cells. The data set can be described thus: Cell viability assay (MTT), VERO. It is filed as cell-based, Cercopithecus aethiops. The note with it: concentration for 30% proliferation inhibition, 24 h. On the procedure:
(§1) The epithelial cell line VERO (ATCC-Catalog No. CCL-81^TM), derived from the kidney of the African green monkey, Cercopithecus aethiops and fibroblast cell line L-929 (ATCC-Catalog No. CCL-1^TM), derived from Mus musculus (http://www.atcc.org) were grown in Iscoves’s Modified Dulbecco’s Medium (IMDM) supplemented with 10% (v/v) fetal bovine serum (FBS), plus 2 mM L-glutamine, 100 U/ml penicillin, 100.00 µg/ml streptomycin, 5 × 10^−5 M 2-mercaptoethanol and maintained at 37 °C in a 10% CO2 atmosphere. Subcultures were performed via enzymatic cell dissociation in 0.25% trypsin. After dissociation, the cells were placed in culture medium at 4 °C with 10% FBS to inhibit the action of trypsin. The isolated cells were centrifuged for 10 min at 1000×g at 4 °C, and the cells were grown in new bottles. This procedure was repeated when cells reached a confluence of ~90%. All commercial reactants and solvents were purchased from either Sigma-Aldrich Laborchemikalien GmbH (Dzitko et al. [2014]).
(§2) Suspensions of the compounds 4a–l were freshly prepared (5 mg/ml DMSO) before the cells were exposed, and diluted to appropriate concentrations; 0.9, 1.8, 3.9, 7.8, 15.6, 31.2, 62.5, and 125.00 μg/ml with the culture medium. Cells treated with 2.5% DMSO-solvent served as a control in each experiment.
(§3) The effects of tested compounds on the viability of mouse fibroblasts L929 and […] VERO cells were evaluated using the MTT assay. The MTT assay was used according to international standards: ISO 10993-5:2009 (Tests for in vitro cytotoxicity; http://www.iso.org/iso/catalogue_detail.htm? csnumber = 36406). L929 and VERO cells were plated into 96-well plates at a density of 1.0 × 10^4/100 μl/well in culture medium and allowed to attach for 24 h before treatment. Afterwards, culture medium in the plates was replaced by 100 μl compounds suspension at concentration of 0–125 μg/ml and the cells were exposed for 24 h. Then 1 mg/ml MTT (50 μl/well) was added to each well and incubated at 37 °C, 10 % CO2 for 2 h. Mitochondrial dehydrogenases of viable cells reduce the yellowish water-soluble MTT to water-insoluble formazan crystals, which were solubilized with dimethyl sulfoxide (DMSO). The cell culture medium was aspirated cautiously, after which 150 μl DMSO was added to each well and mixed thoroughly. Optical density (OD) was read on the ELISA reader (Multiskan EX, Labsystems; http://www.mtxlsi.com/multiskan_EX.htm) at 550 nm. The results were expressed as percentage viability compared with the treated 2.5% DMSO controls. All experiments were performed in triplicate.

Data set [1] has as its system human breast carcinoma MCF-7 cells. As to the kind of experiment: In vitro antiproliferative assay (SRB), MCF-7. It is filed as cell-based. The following applies: Homo sapiens, MCF7, 72 h exposure, mean ± SD. On the procedure: (§4) Biphenotypic B myelomonocytic leukemia MV4-11, human lung carcinoma A549, human breast carcinoma MCF-7, and normal mouse fibroblast BALB/3T3 cells were obtained from American Type Culture Collection (Rockville, Maryland, USA). All the cell lines are being maintained at the Institute of Immunology and Experimental Therapy, Wroclaw, Poland. MV4-11 cells were cultured in RPMI 1640 medium (Gibco, UK) with 2 mM L-glutamine adjusted to contain 1.0 mM sodium pyruvate, and 10% fetal bovine serum (FBS) (all from Sigma-Aldrich, Germany). A549 cells were cultured in RPMI 1640+ Opti-MEM (1:1) (both from Gibco, UK), MCF-7 cells in Eagle medium (IIET, Wroclaw, Poland), BALB/3T3 in Dulbecco medium (IIET, Poland) supplemented with 2 mM L-glutamine and 1.0 mM sodium pyruvate, 10% fetal bovine serum (all from Sigma-Aldrich, Germany). The MCF-7 cell culture was supplemented with 0.8 mg/l of insulin (Sigma-Aldrich, Germany). All culture media were supplemented with 100 units/ml penicillin, and 100 µg/ml streptomycin (both from Polfa Tarchomin S.A., Poland). All cell lines were grown at 37 °C with 5% CO2 humidified atmosphere (Łączkowski et al. [2014], [2016a]). Prior to usage, the compounds were dissolved in DMSO and culture medium (1: 9) to the concentration of 1 mg/ml, and subsequently diluted in culture medium to reach the required concentrations (0.1, 1, 10, and 100 µg/ml) (Łączkowski et al. [2014], [2016a]). Twenty-four hours prior to the addition of the tested compounds, the cells counted using Burker hemocytometer were plated in 96-well plates (Sarstedt, Germany) at a density of 1 × 10^4 cells per well. The assay was performed after 72 h of exposure to varying concentrations of the tested agents. The in vitro cytotoxic effect of all agents was examined using the SRB assay for adherent cells (A549, MCF-7, and BALB/3T3) or MTT assay for leukemia cells (MV4-11) as described previously. […] Each compound in each concentration was tested in triplicate in a single experiment, which was repeated 3–7 times (Rubinstein et al. [1990]; Bramson et al. [1995]). Cells were attached to the bottom of plastic wells by fixing them with cold 50% TCA (trichloroacetic acid, POCH, Gliwice, Poland) on top of the culture medium in each well. The plates were incubated at 4 °C for 1 h and then washed five times with tap water. The cellular material fixed with TCA was stained with 0.1% sulforhodamine B (SRB, Sigma-Aldrich, Germany) and dissolved in 1% acetic acid (POCH, Gliwice, Poland) for 30 min. Unbound dye was removed by rinsing (4×) in 1% acetic acid. The protein-bound dye was extracted with 10 mM unbuffered Tris base (Sigma-Aldrich, Germany) for determination of the optical density (λ = 540 nm) in a computer-interfaced, 96-well Synergy H4 (BioTek Instruments USA) photometer microtiter plate reader (Sidoryk et al. [2012]).

In another data set the test system is mouse L929 fibroblast. The data set can be described thus: Cell viability assay (MTT), L929. It is filed as cell-based. The note with it: concentration for 30% proliferation inhibition, 24 h. On the procedure:
as §1, §2, §3

A short description of data set [2]: Cell viability assay (MTT), L929. Type of data set: cell-based, Mus musculus. The note with it: mouse, L929 fibroblast cells. On the procedure: as §1, §2, §3
Data set [3] concerns human lung carcinoma A549 cells. The data set can be described thus: In vitro antiproliferative assay (SRB), A549. It is filed as cell-based. The note with it: Homo sapiens, A549, 72 h exposure, mean ± SD. On the procedure:
as §4

As to `C/C(=N\Nc1nc(-c2ccc(Cl)cc2)cs1)c1ccc(Nc2nc(N)nc(N)n2)cc1` [Compound 4b, (E)-N^2-(4-(1-(2-(4-(4-chlorophenyl)-1,3-thiazol-2-yl)hydrazinylidene)ethyl)phenyl)-1,3,5-triazine-2,4,6-triamine], the melting point (in general, the temperature of the solid-liquid transition) fell in the range of 237 to 239 °C. Further, the “CC30 VERO” value in the data set with VERO cells is more than 125.0 mg/L. Further, the IC50 – broadly, the concentration that gives 50% inhibition – in data set [1] worked out at 3.23 ± 0.401 mg/L. The “CC30 L929” value with mouse L929 fibroblast was more than 125.0 mg/L. Further, in data set [2], the viability (commonly a read-out of living cells in per cent, often relative to untreated cells) at 24 h, 0.9 µg/ml is 94.8%; the viability at 24 h, 1.8 µg/ml was found to be 95.3%; the viability at 24 h, 3.9 µg/ml came out at 99.4%; the viability at 24 h, 7.8 µg/ml was 99.4%. Besides, in data set [2], the viability at 24 h, 15.6 µg/ml worked out at 110%; the viability at 24 h, 31.2 µg/ml is 113%; the viability at 24 h, 62.5 µg/ml was determined as 119%; the viability at 24 h, 125 µg/ml came to 118%. Moreover, in data set [3], the half-maximal inhibitory concentration (IC50) amounted to 23.8 ± 4.41 mg/L.
As to `C/C(=N\Nc1nc(-c2ccc(F)cc2)cs1)c1ccc(Nc2nc(N)nc(N)n2)cc1` [Compound 4a, (E)-N^2-(4-(1-(2-(4-(4-fluorophenyl)-1,3-thiazol-2-yl)hydrazinylidene)ethyl)phenyl)-1,3,5-triazine-2,4,6-triamine], the melting point is 223 to 225 °C. In the data set with VERO cells, the “CC30 VERO” value was more than 125.0 mg/L. Also, the IC50 in data set [1] amounted to 4.28 ± 0.984 mg/L. Also, the “CC30 L929” value in the data set with mouse L929 fibroblast is more than 125.0 mg/L. For the same compound, in data set [2], the viability at 24 h, 0.9 µg/ml is 96.6%; the viability at 24 h, 1.8 µg/ml was found to be 101%; the viability at 24 h, 3.9 µg/ml was found to be 105%; the viability at 24 h, 7.8 µg/ml was 99%. In addition, in data set [2], the viability at 24 h, 15.6 µg/ml came out at 102%; the viability at 24 h, 31.2 µg/ml worked out at 111%; the viability at 24 h, 62.5 µg/ml is 115%; the viability at 24 h, 125 µg/ml was found to be 111%. Also, in data set [3], the half-maximal inhibitory concentration (IC50) amounted to 38.6 ± 4.17 mg/L.
On to `C/C(=N\Nc1nc(-c2ccc([N+](=O)[O-])cc2)cs1)c1ccc(Nc2nc(N)nc(N)n2)cc1` [Compound 4h, (E)-N^2-(4-(1-(2-(4-(4-nitrophenyl)-1,3-thiazol-2-yl)hydrazinylidene)ethyl)phenyl)-1,3,5-triazine-2,4,6-triamine], for which the “CC30 VERO” value in the data set with VERO cells was more than 125.0 mg/L. For the same compound, the IC50 in data set [1] was found to be 8.72 ± 5.28 mg/L. Besides, in the data set with mouse L929 fibroblast, the “CC30 L929” value was more than 125.0 mg/L. For the same compound, in data set [2], the viability at 24 h, 0.9 µg/ml was found to be 100%; the viability at 24 h, 1.8 µg/ml amounted to 98.5%; the viability at 24 h, 3.9 µg/ml was found to be 100%; the viability at 24 h, 7.8 µg/ml was found to be 105%. Moreover, in data set [2], the viability at 24 h, 15.6 µg/ml is 105%; the viability at 24 h, 31.2 µg/ml is 114%; the viability at 24 h, 62.5 µg/ml turned out to be 118%; the viability at 24 h, 125 µg/ml turned out to be 104%. For the same compound, the IC50 in data set [3] is 33.6 ± 2.42 mg/L.
In the case of `C/C(=N\Nc1nc(-c2ccc(Cl)c(Cl)c2)cs1)c1ccc(Nc2nc(N)nc(N)n2)cc1` [Compound 4i, (E)-N^2-(4-(1-(2-(4-(3,4-dichlorophenyl)-1,3-thiazol-2-yl)hydrazinylidene)ethyl)phenyl)-1,3,5-triazine-2,4,6-triamine], the “CC30 VERO” value in the data set with VERO cells is more than 62.5 mg/L. Besides, in data set [1], the IC50 is 3.69 ± 1.64 mg/L. The “CC30 L929” value in the data set on mouse L929 fibroblast was more than 62.5 mg/L. Moreover, in data set [2], the viability at 24 h, 0.9 µg/ml stood at 101%; the viability at 24 h, 1.8 µg/ml was determined as 97.9%; the viability at 24 h, 3.9 µg/ml amounted to 96.1%; the viability at 24 h, 7.8 µg/ml amounted to 100%. Further, in data set [2], the viability at 24 h, 15.6 µg/ml came to 98.1%; the viability at 24 h, 31.2 µg/ml came out at 108%; the viability at 24 h, 62.5 µg/ml amounted to 100%. Moreover, the IC50 in data set [3] is 57.5 ± 20.7 mg/L.

The values are drawn from article PMC5854716, “Synthesis, molecular docking, ctDNA interaction, DFT calculation and evaluation of antiproliferative and anti-Toxoplasma gondii activities of 2,4-diaminotriazine-thiazole derivatives” (Medicinal Chemistry Research, 2018).
